The values that follow come from patent US11028087B2, “2,6-disubstituted-9-cyclopentyl-9H-purines, use thereof as medicaments, and pharmaceutical compositions” (UNIVERZITA PALACKEHO V OLOMOUCI, priority 2017, dated 2021).

Each structure is given as a SMILES string.

The target of assay [1] is T1, CDK7Cyclin H/MAT1 (Homo sapiens, UniProt P50613).
T1 construct: purchased ProQinase GmbH
Put plainly: Kinase inhibition assay with [γ-33P]ATP. The assay is classed as biochemical. The note with it: (YSPTSPS)2KK peptide, 1.5 μM ATP; read-out: IC50 values (μM) CDK7.

The test system of assay [2] is ERK1/2, STAT5 and STAT3 phosphorylation in EOL-1 cells. As to the kind of experiment: Immunoblotting of signaling downstream of PDGFR in EOL-1 cells. The following applies: 1 hour (FIG. 4). The format is cell-based. The procedure: (§1) To confirm kinase-inhibitory activity of novel compounds in cells, MV4-11 cells with FLT3-ITD and EOL-1 cells expressing FIP1L1-PDGFRA fusion protein were analyzed upon 1 hour treatment. Treated cells were harvested by centrifugation and homogenized in an extraction buffer (10 mM HEPES pH 7.4, 1 mM EDTA, 1 mM EGTA, 5 mM KC, 1.5 mM MgCl2, 0.5% NP40, supplemented with 1 mM DTT, 1 mM NaF, 0.1 mM Na3VO4, 1 mM PMSF, 0.5 μg/ml Leupeptin, 2 μg/ml Aprotinin) on ice for […]. The homogenates were clarified by centrifugation at 10,000 g for 30 min at 4° C., proteins were quantified by the Bradford method and then diluted to the same concentration. […] of total proteins were separated by SDS-polyacrylamide gel electrophoresis and transferred onto nitrocellulose membranes. Membranes were blocked in 5% BSA in TBS with 0.1% Tween 20 and probed overnight with specific antibodies for FLT3 (clone 8F2), phospho-FLT3 Y589/591 (30D4), phospho-FLT3 Y591 (33G6), phospho-FLT3 Y842 (10A8), phospho-FLT3 Y969 (C24D9), PDGFRA (D1E1E), phospho-PDGFRA Y849/PDGFRB Y857 (C43E9), phospho-PDGFRA Y1018, p44/42 MAPK (ERK1/2), phospho-p44/42 MAPK (ERK1/2) (Thr202/Tyr204), STAT5, Phospho-STAT5(Tyr694), STAT3 (79D7), phospho-STAT3 (Tyr705) (D3A7), MEK1/2 (D1A5), phospho-MEK1/2 (Ser217/221) purchased from Cell Signaling, USA, α-tubulin (DM1A, Sigma Aldrich, USA) and PCNA (PC-10, gifted by Dr. B. Vojtesek). […]
(In western blotting, separated proteins are transferred to a membrane and probed.)

In assay [3] the test system is FLT3 (FLT3-ITD) in MV4-11 cells. As to the kind of experiment: Immunoblotting of FLT3 phosphorylation in MV4-11 cells. The note with it: MV4-11 FLT3-ITD cells, 1 hour treatment, immunoblotting (FIG. 1). The format is cell-based. As for the experimental part: Cells were exposed for 1 hour to the indicated concentrations of 264 or 270 and then levels of phosphorylations at specific tyrosine residues of FLT3 were analyzed.
To confirm kinase-inhibitory activity of novel compounds in cells, MV4-11 cells with FLT3-ITD and EOL-1 cells expressing FIP1L1-PDGFRA fusion protein were analyzed upon 1 hour treatment. Treated cells were harvested by centrifugation and homogenized in an extraction buffer (10 mM HEPES pH 7.4, 1 mM EDTA, 1 mM EGTA, 5 mM KC, 1.5 mM MgCl2, 0.5% NP40, supplemented with 1 mM DTT, 1 mM NaF, 0.1 mM Na3VO4, 1 mM PMSF, 0.5 μg/ml Leupeptin, 2 μg/ml Aprotinin) on ice for […]. The homogenates were clarified by centrifugation at 10,000 g for 30 min at 4° C., proteins were quantified by the Bradford method and then diluted to the same concentration. […] of total proteins were separated by SDS-polyacrylamide gel electrophoresis and transferred onto nitrocellulose membranes. […]

The test system of assay [4] is FLT3 phosphorylation in MV4-11 xenograft. Put plainly: MV4-11 xenograft target modulation, pFLT3 immunoblot. The assay is classed as in vivo, mice. As for the experimental part:
(§2) Female athymic nu/nu mice (8 weeks old) were subcutaneously implanted with 5×10^6 MV4-11 cells in 1:1 mixture with Matrigel (High concentration basement membrane Matrigel, Corning) into the hind flank on day 0. Tumors were allowed to growth to the volume of 500-800 mm^3. Body weight and tumor size were recorded 3 times a week. Mice were randomized to treatment groups, 4 to 5 mice each, for target modulation studies.
(§3) Mice were sacrificed at 2 time points (2 hours and 24 hours) after treatment. Tumors were resected and mechanically disintegrated. Cells were washed twice with PBS (lx), then lysed in ice-cold lysis buffer (10 mM HEPES pH 7.4, 1 mM EDTA, 1 mM EGTA, 5 mM KCl, 1.5 mM MgCl2) supplemented with protease and phosphatase inhibitors (10 mM β-glycerolphosphate; 1 mM NaF; 0.1 mM Na3VO4; 0.1 mM PMSF; 10 μg/ml Leupeptin; 2 μg/ml Aprotinin; 1 mM DTT) and cleared by centrifugation. Samples (50 μg of total protein amount) were separated on SDS-PAGE, followed by transfer of the separated proteins to nitrocellulose membrane.

Assay [5] relates to ERK1/2, STAT5 and STAT3 phosphorylation in MV4-11 cells. Put plainly: Immunoblotting of signaling downstream of FLT3 in MV4-11 cells. The format is cell-based. The note with it: 1 hour (FIG. 3). The procedure:
as §1

For assay [6], the system named is STAT5 phosphorylation in MV4-11 xenograft. As to the kind of experiment: MV4-11 xenograft target modulation, pSTAT5 immunoblot. The format is in vivo, mice. The note with it: single dose 10 mg/kg intraperitoneal, after 24 hours. The procedure: as §2, §3

T1 sequence (P50613 whole entry): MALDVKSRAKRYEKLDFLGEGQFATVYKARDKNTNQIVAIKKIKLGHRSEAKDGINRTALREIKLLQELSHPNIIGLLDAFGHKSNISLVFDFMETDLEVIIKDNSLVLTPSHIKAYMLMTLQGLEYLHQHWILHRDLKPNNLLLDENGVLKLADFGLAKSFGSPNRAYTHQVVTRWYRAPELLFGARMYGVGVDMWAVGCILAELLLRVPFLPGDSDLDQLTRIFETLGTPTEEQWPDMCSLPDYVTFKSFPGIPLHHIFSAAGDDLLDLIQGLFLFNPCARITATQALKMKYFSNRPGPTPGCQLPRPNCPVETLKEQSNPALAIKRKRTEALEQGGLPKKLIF
T1 sequence (P51946 whole entry partner): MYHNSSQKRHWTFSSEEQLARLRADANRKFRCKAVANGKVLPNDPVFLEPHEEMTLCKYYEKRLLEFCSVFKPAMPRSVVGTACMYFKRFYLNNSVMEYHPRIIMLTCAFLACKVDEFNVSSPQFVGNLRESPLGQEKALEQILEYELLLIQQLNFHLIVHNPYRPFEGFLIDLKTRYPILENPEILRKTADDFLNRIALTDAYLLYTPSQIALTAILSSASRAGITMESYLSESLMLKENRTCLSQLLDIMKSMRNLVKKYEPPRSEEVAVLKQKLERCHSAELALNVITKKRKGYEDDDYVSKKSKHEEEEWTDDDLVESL
T1 sequence (P51948 whole entry partner): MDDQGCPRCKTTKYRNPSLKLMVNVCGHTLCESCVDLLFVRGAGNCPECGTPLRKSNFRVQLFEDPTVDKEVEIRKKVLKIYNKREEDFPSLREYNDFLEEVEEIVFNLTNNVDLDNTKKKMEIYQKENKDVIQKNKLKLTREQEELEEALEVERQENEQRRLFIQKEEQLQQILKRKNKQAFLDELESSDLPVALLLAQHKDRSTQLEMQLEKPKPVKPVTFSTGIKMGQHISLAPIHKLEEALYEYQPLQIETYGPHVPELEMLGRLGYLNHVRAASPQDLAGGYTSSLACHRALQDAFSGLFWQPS

A word on the IC50: it is the concentration at which inhibition is half-maximal. Turning to `CN1CC2(C1)CN(c1ccc(Nc3nc(NC4CCC(O)CC4)nc4c3ncn4C3CCCC3)cc1)C2` (centres unmarked) [Compound 7], the IC50 in assay [1] was determined as 0.197 µM.
In the case of `NC1CCC(Nc2nc(Nc3ccc(CN4CCOCC4)cc3)c3ncn(C4CCCC4)c3n2)CC1` (centres unmarked) [Compound 264], the “phosphorylation of ERK1/2, STAT5 and STAT3” value in assay [2] and in assay [5] was “reduced phosphorylation” each time. For the same compound, in assay [3], the “phosphorylation of tyrosine residues of FLT3 receptor kinase (including Y589, Y591, Y742)” value is given as “cellular FLT3 dephosphorylation”. In addition, the “inhibition of pFLT3 in tumor” value in assay [4] (nu/nu mice, single dose 10 mg/kg intraperitoneal, 2 hours after administration) is on record as 95%. Besides, the “pFLT3 level in tumor at 24 hours” value in assay [4] (single dose 10 mg/kg (264 intraperitoneal, Quizartinib oral gavage), 24 hours) is given as “the inhibition sustained 24 hours”. Also, the “reduction of pSTAT5 level in tumor” value in assay [6] is recorded as “more than 95%”. Besides, the half-maximal inhibitory concentration (IC50) in assay [1] turned out to be 0.178 µM.
On to `NCCCCNc1nc(Nc2ccc(CN3CCOCC3)cc2)c2ncn(C3CCCC3)c2n1` [Compound 270], for which the “phosphorylation of ERK1/2, STAT5 and STAT3” value in assay [2] and in assay [5] was “reduced phosphorylation” in each case. Also, the “phosphorylation of tyrosine residues of FLT3 receptor kinase (including Y589, Y591, Y742)” value in assay [3] is “cellular FLT3 dephosphorylation”.
